The record followed here is patent US12565661B2, “Compositions and methods for weed control” (Syngenta Crop Protection AG, priority 2019, dated 2026).

Format in all cases: in vivo
The subject of test [1] is transgenic tobacco expressing SDPS genes and wild-type Samsun tobacco. Nature of the test: Herbicide tolerance of transgenic tobacco sprayed with 1000 g/ha Herbicide Compound 1, visual damage score. The conditions noted are these: for Average Damage (%): 1000 g/ha spray, average across population. The text has this: Populations of transgenic tobacco comprising 20-30 transgenic events per plant transformation constructs were generated as described in example 4. These lines were clonally propagated and 1 clone per event was sprayed with 1000 g/ha of Herbicide Compound 1. Herbicidal damage was visually assessed across the population and a herbicide damage score given at 7 and 14 days. […] indicates no visible damage or stunting whereas a score of 100 indicates a complete death of the plant.
The results in FIG. 3 show the damage scores for 4 populations of plants expressing either Arabidopsis SDPS2 gene (SEQ ID NO.2), the Arabidopsis SDPS2 F240L mutated gene (SEQ ID NO.3). the Chlorella fusca SDPS gene (SEQ ID NO. 10) or the Chlorella fusca SDPS F227L mutated gene (SEQ ID NO.11). A control population of wild-type Samsun tobacco was also assessed for herbicide damage. […] The Arabidopsis gene (SEQ ID NO.2) performs better than the Chlorella wild-type gene in terms of herbicide tolerance and this tolerance is again improved by the addition of the F240L mutation (SEQ ID NO.3).

For test [2], the system named is Nicotiana tabacum Samsun wild type and transgenic lines (plantlets). Nature of the test: Tolerance of transgenic tobacco T1 lines in liquid culture, bleaching damage score. The conditions noted are these: after 7 days. As for the experimental part:
Nicotiana tabacum Samsun wild type and transgenic lines were sterilized by placing in 30 ml Universals containing approximately 15 ml freshly made 2% Virkon and rotated on a roller for 15 mins. The Virkon was pipetted off using an extended fine tip mini pastette and the seed washed 4 times with 1% PPM (Plant Preservative Mixture, P820, 250 ml. Apollo Scientific Ltd.)
Seed was germinated on 90 mm Petri dishes containing 1/3 MS+0.8% agarose (SPI, Duchefa #DU 0463). pH5.7 (for WT) and 1/3 MS+0.8% agarose+100 ug/ml kanamycin (for the transgenic). Approximately 100 seed of each was spread on to each Petri dish. NB the transgenic seed is not homozygous therefore was plated on Kan to select. (MS=Murashige & Skoog MS Medium, #M0221, Melford Labs).
Plates were placed in a clear plastic “incubating box” (lids under plate) and incubated in a controlled environment room with the following conditions: • Temperature: Day 25° C./Night 25° C. • Light settings: Photo period 16 hours, Light level ˜50 μmol/m^2/s Dose Response Test:
7 day old tobacco plantlets (3 plantlets per well) were transferred aseptically to 24 well plates (cell-culture cluster flat bottom with lid) (Corning Costar #3524) containing 2 ml % MS+30 mM sucrose (Fisher #10638403), pH5.7 per well. Herbicide 2 was two-fold serially diluted in DMSO starting at 10 ppm and added to the media. DMSO only was added to the zero compound control wells. NB.
Plates were placed in clear plastic “Incubating boxes” (lid under plate) and incubated for 2 weeks in a controlled environment room with the following conditions: • Temperature: Day 24° C./Night 18° C. • Light settings: Photo period 16 hours, Light level 600 μmol/m^2/s. Assessment:
Plantlets were assessed visually for bleaching symptomology after 7 days and a damage score given for each well.

The subject of test [3] is transgenic tobacco overexpressing Arabidopsis SDPS F240L gene and wild-type tobacco. Nature of the test: Herbicide damage of transgenic tobacco sprayed with 75 g/ha Aclonifen or 25 g/ha herbicide Z. The conditions noted are these: 7 days post treatment; for average herbicide damage score: 75 g/ha. Here is the method:
A further set of transgenic tobacco overexpressing the Arabidopsis SDPS F240L gene (SEQ ID NO.3) were created as described above. These plants were sprayed with 75 g/ha Aclonifen or 25 g/ha herbicide Z. The plants were assessed for herbicide damage at 7 days post treatment and compared to wild-type tobacco plants.
Numerous transgenic tobacco events expressing the Arabidopsis SDPS2 F240L gene (SEQ ID NO.3) show no damage from the herbicide treatment in contrast to the damage seen on the control plants. The average herbicide damage scores for the transgenic tobacco population versus the control wild-type plants are shown in table 6.

“And” between values parts separate entries of the source, which are not always exact repeats. Identical values can stand only once.

As for `CCOC(=O)C(CC)N(c1c(C)cccc1C)S(=O)(=O)CCl` (stereo not shown) [Herbicide Compound Ex. 1], the “Average Damage (%)” value was 23.125% in test [1] (WT Control tobacco); 13.25% in test [1] (tobacco with construct pBin TMV AraSDPS2); 5% in test [1] (tobacco with construct pBin TMV AraSDPS2_F240L); 25% in test [1] (tobacco with construct pBin TMV CfSDPS); 10.05% in test [1] (tobacco with construct pBin TMV CfSDPS_F227L). The results for the “tolerance to herbicide (in words)” value in test [1] (tobacco expressing Chlorella fusca SDPS F227L (SEQ ID NO.11)) and in test [1] (tobacco overexpressing Chlorella fusca SDPS (SEQ ID NO. 10)) were “does display increased tolerance” and “does not increase tolerance”, respectively.

As for `CCOC(=O)C(C)N(c1c(C)cccc1C)S(=O)(=O)CC` (stereo not shown) [Herbicide Compound Ex. 2], the “bleaching damage score (two replicate plates a/b)” value (from here on “bleaching damage score”) in test [2] (0.75 ppm, WT (Samsun)) is recorded as 0/0; in test [2] (0.75 ppm, tobacco line ARA SDPS1) it was 0/0; in test [2] (0.75 ppm, tobacco line ARA SDPS F240V 1) it was 0/0; in test [2] (1.25 ppm, WT (Samsun)), 0/0; in test [2] (1.25 ppm, tobacco line ARA SDPS1) it was 0/0; in test [2] (1.25 ppm, tobacco line ARA SDPS F240V 1), 0/0. The “bleaching damage score” value in test [2] (2.5 ppm, WT (Samsun), listed as Herbicide 2) is 25/25 and 50/50; in test [2] (2.5 ppm, tobacco line ARA SDPS1, listed as Herbicide 2), 50/50 and 50/25 and 25/25; in test [2] (2.5 ppm, tobacco line ARA SDPS F240V 1), 25/25; in test [2] (5 ppm, WT (Samsun), listed as Herbicide 2) it was 90/100 and 95/90; in test [2] (5 ppm, tobacco line ARA SDPS1, listed as Herbicide 2), 100/100 and 90/80 and 80/95; in test [2] (5 ppm, tobacco line ARA SDPS F240V 1, listed as Herbicide 2), 50/50 (2×) and 50/25. The “bleaching damage score” value in test [2] (10 ppm, WT (Samsun), listed as Herbicide 2) was 100/100 and 95/100; in test [2] (10 ppm, tobacco line ARA SDPS1) it was 100/100; in test [2] (10 ppm, tobacco line ARA SDPS F240V 1, listed as Herbicide 2), 90/100 (2×) and 100/100.

For the compound `Nc1c([N+](=O)[O-])ccc(Oc2ccccc2)c1Cl` [Aclonifen], the results for the “average herbicide damage score” value in test [3] (Wild type tobacco) and in test [3] (pBin AraSDPS2 F240L transgenic tobacco) were 40 and 16.17, respectively. In addition, in test [3] (wild type tobacco, individual control plants, Aclonifen 75 g/ha spray), the herbicide damage score was 35 (4×) and 30 (2×) and 60 (2×).
